“Also recorded” adds a separate entry of the source.
Assays:
[1] = system: luciferase+ mouse T cells; assay: proliferation of luciferase+ mouse T cells in vitro (plate-bound anti-CD3, luminescence); type: cell-based; settings: 96 hours; for lowest concentration of peptide that led to maximal luminescence: luc+ T cell proliferation, plate-bound anti-CD3; for luc+ T cell proliferation: relative luminescence, quadruplicate wells, plate-bound anti-CD3, daily addition of peptide, at the concentration in brackets
Source text: (§1) VIP-related peptides tested in silico for predicted binding affinities to human VPAC1 and VPAC2 (Creative Biolabs). Docking scores show predicted free energy change associated with peptide binding. Note that a greater negative score is predicted to be associated with higher binding affinity. Based upon an initial screen of 300 peptides for binding affinity to VPAC1 and screening a subset of 100 peptides for binding affinity to VPAC2, a select group of peptides were synthesized and tested for their ability to stimulate proliferation of luciferase+ mouse T cells in vitro. The lowest concentration of peptide that led to maximal luminescence is shown. Proliferation data represents the relative level of luminescence from quadruplicate wells containing 1×10E5 T cells/well in a 96 well tissue culture plate stimulated for 96 hours with plate-bound anti-CD3 antibodies. Confirmatory in vivo testing of select peptides was then performed based upon their ability to induce autologous anti-leukemia responses in C57Bl/6 mice that had been previously injected with 1×10E6 C1498 acute myeloid leukemia cells. Leukemia cells were injected on day 0, 10 ug peptide was injected s.c. daily on days 6-12. The predicted binding affinity to VPAC1 and/or VPAC2 was associated with enhanced activity in stimulating mouse T cell proliferation and anti-leukemia activity in mice.

[2] = toxicity in immunologically naive C57BL/6 mice; type: in vivo; settings: for H&E staining of colon and lung tissue: FIG. 29c-29d; for overall survival, activity levels or weight of mice: daily s.c. for 10 days, same dose as anti-cancer protocol, FIG. 29a; for toxicity in C57BL/6 mice: daily s.c. injection for 10 days, analyzed day 11, FIG. 29
Source text: C57BL/6 mice received daily subcutaneous injection of ANT008 or ANT308 for 10 days (n=5 per group) and analyzed for evidence of toxicity on day 11. (FIG. 29A) Body weight in grams during the duration of drug administration; (FIG. 29B) Number of WBCs, RBCs and platelets in blood as per complete blood count (left) proportions of T cells, B cells, NK cells, DCs and MDSCs in spleen as identified by flow cytometry (right) are plotted. Representative H&E stained sections of (FIG. 29C) colon (top), lungs (bottom) and (FIG. 29D) liver are shown. Arrows in FIG. 29D show the focal hepatic lesions in liver. […] C57BL/6 mice received daily subcutaneous injection of 30 ug of ANT308 (n=6) or a combination of 30 ug of ANT308 daily along with 200 ug of anti-PD1 every 3 days (n=6), for a duration of 4 days. Mice receiving scrambled peptide and isotype IgG served as control (n=4). (FIG. 29E) Weight of the mice, (FIG. 29F) complete blood count (CBC) and (FIG. 29G) serum chemistries after 4 days of treatment are plotted. P values in FIGS. 29B, 29E, 29F, and 29G were calculated by ANOVA followed by Dunnett's post-test. Error bars represent mean and standard deviation. *p<0.05, **p<0.01.
To evaluate the effect of VIP-R-mediated signaling inhibition on the growth of PDAC tumors in vivo, three different murine PDAC tumors (KPC-Luc, MT5 and Panc02) were implanted in syngeneic immunocompetent C57BL/6 mice. After tumors were palpable, mice were randomly allocated to treatment with VIP-R antagonists and/or anti-PD-1 monoclonal antibody, or control groups that received scrambled peptide or isotype-matched IgG. […] In addition to the antitumor efficacy, the safety of VIP-R antagonists in immunologically naïve mice was confirmed (FIGS. 29a-29g).
Histology. All tissues for histology were fixed at 4° C. for 2-3 days in 4% paraformaldehyde in PBS, embedded in paraffin and cut into 5-μm thick sections. Slides were deparaffinized with EZ-Prep (#05279771001, Ventana, Tucson, AZ) and then were antigen retrieved for 64 minutes with CC1 reagent (#950-500, Ventana, Tucson, AZ). Mouse anti-VPAC1 and anti-VPAC2 from Sigma Aldrich (St. Louis, MO) diluted at 1:500 or rabbit anti-cytokeratin-19 (Abcam, Cambridge, MA) diluted at 1:500 were applied and incubated for 40 minutes. DISCOVERY OmniMap anti-mouse or anti-rabbit HRP was applied and incubated for 12 minutes. The detection was completed in combination with DISCOVERY ChromoMap DAB kit as per manufacturer's recommendations. Pancreas harvested from mice with orthotopically implanted KPC-Luc tumors or colon, liver and inflated lungs harvested from naïve C57BL/6 mice receiving ANT008 or ANT308 were formalin-fixed and paraffin embedded before being stained with H&E (Leica 560 MX, Wetzlar, Germany) or Masson's Trichrome (Polyscientific Inc., Bay Shore, NY). All slides were dehydrated, cover-slipped and scanned on Hamamatsu Nanozoomer 2.0 HT at 40× and reviewed by a pathologist.

[3] = system: C1498 acute myeloid leukemia cells; assay: survival of mice engrafted with C1498 acute myeloid leukemia; type: in vivo, mouse; set-up: percentage of survival: concentration or dose not given beside the values; settings: for Median survival time / Percentage alive day 60: 1 x 10E6 C1498 i.v. on day 0, 10 ug peptide s.c. daily on days 6-12
Experimental: B6 (CD45.2, H-2K^b) mice were administered C1498 1×10^6/mouse through tail vein. […] Survival of the mice was observed daily. Data were pooled from 3 replicated experiments.
B6 (CD45.2, H-2K^b) mice were administered C1498 1×10^6/mouse through tail vein. […] Survival of the mice was observed daily. Survival of the mice were pooled from 3 replicated experiments and analyzed by log-rank test compared with the survival of mice treated with scrambled peptide.
B6 SJL (CD45.1, H-2K^b) mice were administered C1498 (CD45.2 H-2K^b) 1×10^6/mouse through tail vein. […] The mice were bled weekly from the submandibular vein, starting from day 6, prior to the administration of peptides. Antibodies to CD45.2 identified myeloid leukemia cells and antibodies to CD45.1 identified murine leukocytes of the host.
as §1
To test the ability of the disclosed VIP-R antagonists to effect survival to acute myeloid leukemia survival, B6 (CD45.2, H-2K^b) mice were administered C1498 1×10^6/mouse through tail vein. […] Survival of the mice was observed daily.

Sequence | lowest concentration of peptide that led to maximal luminescence [1] | luc+ T cell proliferation [1] | H&E staining of colon and lung tissue [2] | overall survival, activity levels or weight of mice [2] | toxicity in C57BL/6 mice [2] | Median survival time [3] | Percentage alive day 60 [3] | percentage of survival ([3]; FIG. 3, leukemia-bearing mice treated with peptide) | clearance of C1498 leukemia and long-term survival ([3]; FIGS. 39 and 40)
KPRRPYTDNYTRLRKQMAVKKYLNLILN [ANT008] | 1 µM | 185% + 24% | did not show lymphocytic infiltrates or histopathology to suggest auto-immunity | did not affect | no adverse toxicity | 35 days | 16% | 16% | 
KPRRPYTSDYTRLRKQMAVKKYLNLILN [ANT308] | 3 µM | 109% + 8% | did not show lymphocytic infiltrates or histopathology to suggest auto-immunity | did not affect | no adverse toxicity | 34 days | 40% |  | dose-dependent clearance; also recorded: schedule-dependent clearance
